Source: paper PMC4142572 (Bioorganic & medicinal chemistry letters, 2014)
pIC50: −log10 of the molar value.

Molecular target: hPDE4B (Homo sapiens, UniProt Q07343)
Test: Enzymatic inhibition of PDE4B long isoform in vitro
Assay type: biochemical
Settings: for PDE4B-subtype selectivity: enzymatic assays using PDE4B1 and PDE4D7

Chain of hPDE4B (Q07343 whole entry, canonical isoform): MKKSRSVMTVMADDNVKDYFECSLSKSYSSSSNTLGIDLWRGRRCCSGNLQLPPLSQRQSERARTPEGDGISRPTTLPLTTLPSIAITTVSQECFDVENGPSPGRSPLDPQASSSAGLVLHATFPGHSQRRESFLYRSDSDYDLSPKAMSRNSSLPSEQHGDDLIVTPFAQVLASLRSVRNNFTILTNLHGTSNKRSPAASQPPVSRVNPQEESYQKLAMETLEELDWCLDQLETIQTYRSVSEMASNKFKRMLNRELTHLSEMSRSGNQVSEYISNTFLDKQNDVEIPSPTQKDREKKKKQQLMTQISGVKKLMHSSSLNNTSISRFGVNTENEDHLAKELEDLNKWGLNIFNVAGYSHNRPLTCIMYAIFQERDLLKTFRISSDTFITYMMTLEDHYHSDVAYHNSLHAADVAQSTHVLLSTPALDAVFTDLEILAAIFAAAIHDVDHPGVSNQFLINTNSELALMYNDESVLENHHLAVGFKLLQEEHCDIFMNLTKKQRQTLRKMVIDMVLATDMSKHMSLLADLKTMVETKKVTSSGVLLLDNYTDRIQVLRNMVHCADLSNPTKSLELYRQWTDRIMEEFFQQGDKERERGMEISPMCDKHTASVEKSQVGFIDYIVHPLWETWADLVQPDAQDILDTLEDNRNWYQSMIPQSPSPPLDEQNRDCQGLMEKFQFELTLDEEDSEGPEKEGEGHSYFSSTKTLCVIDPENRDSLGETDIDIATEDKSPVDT

| PDE4B-subtype selectivity | pIC50 | Compound |
| --- | --- | --- |
| does not show PDE4B-subtype selectivity | – | CCOc1nc(Nc2ccc(OC)cc2)nc(OCC)n1 [Compound 1] |
| highly selective for PDE4B | – | CCc1c(C)nc(-c2ccc(Cl)s2)nc1Nc1ccc(CC(=O)O)cc1 [Compound 2, reference compound] |
| – | 6.11 | O=C(O)Cc1ccc(Nc2nc(-c3ccc(Cl)cc3)nc(C3CC3)n2)cc1 [Compound 9] |
